Laboratory results: US20190336453A1, “ORAL DISPERSIBLE FILM COMPOSITION” (BonAyu Lifesciences Private Limited, priority 2017, published 2019)

Key:
Format in all cases: physicochemical
[1] = Gas chromatography assay of actives in mouth freshener film; details: for Assay result (%): GC result relative to formula content, mouth freshener film; for GC Result (%): content in mouth freshener film
Description: Gas Chromatography is quantitative study use to determine assay of actives. GC was done by Bangalore Testing Laboratories Pvt. Ltd., Bangalore (FIG. 8). The GC is used to observe whether the active is intact in the film without its decomposition. Table 15 illustrated all the characteristic peaks of the actives (menthol, thymol, methyl salicylate, eucalyptol) used in the composition.

UV assay of actives = details: UV absorbance at λmax, sample vs standard; ODF samples Examples 3-5
Experimental: A stock solution of 1000 μg/ml of alpha lipoic acid were prepared in methanol and measured absorbance at 322 nm.
Standard β-carotene for identification was prepared in DCM to obtain 1000 μg/mL and measured absorbance at 461 nm.
2 ml of the standard and sample solution of folic acid was taken in marked test tubes. In each test tube, 2 ml of 0.02% potassium permanganate solution, 2 ml 2% […] solution, 2 ml 4 M hydrochloric acid solution, 1 ml 5% ammonium sulphamate solution and 1 ml dye solution (0.1% N, N diethyl aniline dye solution in iso propyl alcohol) added and mixed well, then kept for 15 minute at room temperature. It was absorbance recorded at 535 nm against blank.
2 ml of the standard and sample solution of Vitamin B6 was taken in marked test tubes. In each test tube, 1 ml of ammonium buffer (in water), 1 ml of 20% sodium acetate (in water), 1 ml of 5% boric acid (in water) and 1 ml dye (2,6-di-chloroquinine chorimide) solution added and mixed well. It was absorbance recorded at 650 nm against blank.
The assay were prepared of standard and sample solutions of four actives, that is, lipoic acid, β-carotene, folic acid and Vitamin B6 respectively.

[2] = Thermogravimetric analysis (TGA); details: 30-360° C. at 20° C./min
Experimental: Thermogravimetric analysis (TGA) studies (Perkin Elmer Pyris 1, Shelton, Conn., USA) were performed to estimate the thermal stability of the actives and excipients during HME processing. Data were analyzed using Pyris software. The API excipients were heated from 30-360° C. at 20° C./min.

[3] = In-vitro disintegration time during formulation development (saliva stimulant and flavour optimisation)
Description: The purpose of using saliva stimulating agents is to increase the rate of production of saliva that would aid in the faster disintegration of the rapid dissolving strip formulations.
The concentration of menthol, eucalyptol and sucralose was optimized according to the mouth feel, freshening effect and the formulation was checked for its effect on disintegration time (Table 5).

[4] = Raman spectroscopy for stability of active after HME; details: ODF containing Vitamin B12 (Example 6), Raman spectra
Experimental: Raman spectroscopy is a spectroscopic technique commonly used in chemistry to provide a structural fingerprint by which molecules can be identified. It can identify a particular molecule/API based on the Raman shift. The formulated ODFs were analyzed using Raman spectra for identification of stability of active in the delivery system after processing using HME. The Raman spectra was recorded with a LabRam HR800 (Horiba Jovan Yvon, UK) equipped with a 534-nm Ar—Ne laser. The laser excitation was focused using a 50 objective (Olympus Corporation, Japan) and the scattered light was totally transmitted through the notch filter towards the confocal hole and entrance slit of the spectrograph. The stokes-shifted Raman scatter was dispersed using a […] grating onto a peltier-cooled changed-coupled device (CCD, Andor Technology PLC) to capture a spectrum. Each sample had their spectra measured using […] excitation (at 534 nm) of 250 mW and continuous readout of Raman shift spectrum from 0 to 3500 cm^−1. Spectra were acquired using a 50× objective and a […] confocal hole. A 600 lines/mm rotatable diffraction grating along a path length of 800 mm was used to simultaneously scan a range of frequencies. Raman spectra were collected using a Synapse CCD detector (1024 pixels).

| Compound | Assay result (%) [1] | GC Result (%) [1] | Assay of actives Result (%) (UV assay of actives) | other results |
| --- | --- | --- | --- | --- |
| CC12CCC(CC1)C(C)(C)O2 [Eucalyptol] | 96.6% | 0.023(cineole % |  |  |
| COC(=O)c1ccccc1O [Methyl Salicylate] | 92.8% | 0.052% |  |  |
| Cc1ccc(C(C)C)c(O)c1 [Thymol] | 104.3% | 0.097% |  |  |
| OC[C@H]1O[C@H](O[C@]2(CCl)O[C@H](CCl)[C@@H](O)[C@@H]2O)[C@H](O)[C@@H](O)[C@H]1Cl [Sucralose] |  |  |  | loss of weight [2]: < 7% |
| O=C(O)CC(O)(CC(=O)O)C(=O)O [Citric acid] |  |  |  | Disintegration time ([3]; saliva stimulating agent at 1 % composition): 14 s; Disintegration time ([3]; saliva stimulating agent at 5 % composition): Less than 10 seconds; Disintegration time ([3]; saliva stimulating agent at 10 % composition): Less than 10 seconds |
| Nc1nc2ncc(CNc3ccc(C(=O)N[C@@H](CCC(=O)O)C(=O)O)cc3)nc2c(=O)[nH]1 [Folic acid] |  |  | 99.1% |  |
| Vitamin B12 |  |  |  | stability of active after twin-screw HME processing [4]: does not degrade |

Further lines, with some results ahead:

| Assay result (%) [1] | GC Result (%) [1] | Assay of actives Result (%) (UV assay of actives) | Compound | other results |
| --- | --- | --- | --- | --- |
|  |  | 98.28% | CC1=C(/C=C/C(C)=C/C=C/C(C)=C/C=C/C=C(C)/C=C/C=C(C)/C=C/C2=C(C)CCCC2(C)C)C(C)(C)CCC1 [B carotene] |  |
| 92.1% | 0.035% |  | CC1CCC(C(C)C)C(O)C1 (centres unmarked) [Menthol] |  |
|  |  | 99.3% | Vit B6 |  |
|  |  | 100.5% | O=C(O)CCCCC1CCSS1 (centres unmarked) [Lipoic acid] |  |
